{"source": "patent US6100377A", "about": "“Constrained peptides” (The Trustees of the University of Pennsylvania, priority 1994, dated 2000)", "key": {"CD4+ T cells": {"test_system": "CD4+ T cells", "assay": "Blocking of T cell activation by tetanus toxoid (3H-TdR incorporation)", "assay_type": "cell-based", "set-up": "dose or concentration left out as unconfirmed", "details": "10^4 T cells + tetanus toxoid, 48 hours", "method": "10^4 blood monocytes were pulsed with […] of tetanus toxoid for\nhours. 10^4 CD4+ T cells were added with the compounds […] in\na final volume of […] of media. The cells were pulsed with […]\nHTdR and assayed at 48 hours."}, "[1]": {"target": "T1, F1-gp120 binding to CD4+ human cells (Human immunodeficiency virus type 1 group M subtype B, UniProt P04578)", "T1 construct": "Recombinant gp-120 was obtained from Raymond Sweet at Smith Kline Beecham and directly fluoresceinated; purchased Raymond Sweet at Smith Kline Beecham (obtained, not a catalogue product); host or cells: CD4+ human cells (Jurkat CD4+)", "assay": "Inhibition of fluoresceinated gp120 binding to CD4+ cells (flow microfluorimetry)", "details": "compound 1 mg", "method": "This assay uses fluoresceinated gp120 and monitors its ability to bind to CD4+.\nRecombinant gp-120 was obtained from Raymond Sweet at Smith Kline Beecham and directly fluoresceinated. Flow microfluorimetry was performed using a FACScan. Chen, et al., (1992) Proc. Nat'l. Acad. Sci. U.S.A., 89:5872-5876; Weiner, et al., (1990) Cancer Detection and Prevention, 14:317-320; and Weiner, et al., (1990) Vaccines, 339-345, discloses the assay was done using the CD4 related synthetic compounds or, separately, monoclonal anti-CD4 antibody as described."}, "[2]": {"test_system": "ABA delayed type hypersensitivity", "assay": "In vivo inflammation: delayed type hypersensitivity to azobenzenearsonate (ABA)", "set-up": "species or system mouse", "details": "100 μg total dose", "method": "The effects of macrocyclics on in vivo inflammation were examined as follows. The effects of cyclic compounds disclosed in Table I on in vivo inflammatory response to Azobenzenearsonate was performed using treated groups of ABA primed normal Balb/c or Va3.1 transgenic mice with either 1) intravenously administered anti-CD4 monoclonal antibodies, 2) intravenously administered anti-class II antibodies, 3) systemically administered soluble forms of the most efficacious constrained macrocyclics 4) intravenously administered ABA coupled mononuclear cells, and 5) control antibodies and control macrocyclics. […]\nThe delayed type hypersensitivity assay is performed as follows. Five days after priming a mouse with hapten coupled cells, the hind left footpad is measured using an engineer's caliper (Fowler). […] Twenty four hours later, the degree of swelling is measured in the footpad. […]\nFor priming, mice (normal or transgenic with a T-cell receptor that recognizes ABA) are injected subcutaneously in each flank using a 23 g needle with 0.1 ml of ABA- or TNP-coupled spleen cells (3×10^7).Five days later, ear thickness and footpad thickness is measured with a caliper. […] Twenty four hours after challenge, the ears and footpads are measured and the animals sacrificed by cervical dislocation. […]"}, "HIV-1MN": {"test_system": "HIV-1MN", "assay": "Syncytium assay, HIV", "assay_type": "cell-based", "details": "for syncytia: none 100", "method": "Chen, et al., (1992) Proc. Nat'l. Acad. Sci. U.S.A., 89:5872-5876; Weiner, et al. (1990) Cancer Detection and Prevention, 14:317-320, discloses Sup T1 cells are used as target cells because of their rapid and high degree of fusion when co-cultured with HIV-1 producing cell lines. Uninfected target cells were assayed by co-culture with HIV-infected cells (H9/IIIB.) Washed, HIV-infected cells are plated in 96-well plates (10^4 cells/well in RPMI 1640+10% FCS) and incubated for 30 min at 37° C. Target cells are then added at 5×10^5 /well and the number of syncytia is qualitatively determined after a 48-hour incubation period. CD4 forms to be tested are added at time 0 or 24 hours after the assay has been initiated. Graded doses are used, controls including random linear peptides are also added independently. sCD4 and antibodies to CD4 are used as positive controls.\nAnother neutralization assay which is used in the field is as follows. One hundred TCID50 of HIV-1/IIIB or HIV-1/MN cell-free virus is preincubated with serial dilutions of compounds for 1 hour at 37° C. Following incubation, the pretreated virus was then plated on 4×10^4 MT-2 target cells, for 1 hour at 37° C. The MT-2 cells were then washed 3 times and incubated at 37° C. with 5% CO2. Fusion was evaluated 3 days later quantitatively by counting the number of syncytia per well in triplicate under a phase contrast microscope. The neutralization value (the ability of a compound to inhibit HIV infection 0 Vn/Vo) is calculated by dividing the mean number of syncytia per well following treatment with specific antiserum by the mean number of syncytia per well without antiserum (see: Montefiori, et al., (1988) J. Clin. Microbiol., 26:231-235)."}, "sCD4 binding to DRb2": {"target": "T2, sCD4 binding to DRb2 (Homo sapiens, UniProt P01911)", "T2 construct": "made in house", "assay": "CD4 receptor-DRb2 blocking: 125I-sCD4 binding to immobilized DRb2 peptide", "method": "The peptidic fragment is first coupled to activated sepharose 4B (0.5 mg of peptide/ml of beads).\n75 μg of the recombinant soluble CD4 was labelled with 2 mCi of Bolotn Hunter reagent (Dupont/New England Nuclear) in 100 mM sodium borate, pH 8.5, in a volume of 150 μl. The labelled CD4 was separated from the unconjugated reagent on a G-50 Sephadex column containing PBS/0.1% gelatin and stored at -70° C.\nHPLC purified forms of the DRb2 peptide were prepared. The peptide ([…] in 0.1M ammonium bicarbonate, pH 7.8) was immobilized on Falcon microtiter plates by overnight exposure. After washing several times and blocking with 2% BSA in HBSS pH 7.6 for 2 hours we add […] of ^125 I labelled sCD4. After 1 hour at room temperature the wells are washed 5× and the radioactivity counted."}, "[3]": {"test_system": "responder CD4+ T cells + allogeneic cells", "assay": "Blocking of the mixed lymphocyte response", "assay_type": "cell-based, human", "details": ".1 mg printed in table line", "method": "Responder purified CD4+ T cells were used in a mixed lymphocyte response against completely allogeneic human cells. The compounds were added at 10 μg/ml final concentration. The number of responder cells was 10^5 and the number of stimulators 4×10^5 cells per well."}}, "note": "Bridge positions count the residues as written; N and C are the ends. Ends that are not written are not given here. Peptide text beside a SMILES is read from it.", "data": [{"compound": "CC(C)C[C@@H]1NC(=O)[C@H](Cc2ccccc2)NC(=O)[C@H](CO)NC(=O)CNC(=O)[C@H](CCC(N)=O)NC(=O)[C@H](CC(N)=O)NC(=O)[C@@H](NC(=O)[C@@H](N)Cc2ccc(O)cc2)CSSC[C@@H](C(=O)N[C@@H](Cc2ccc(O)cc2)C(=O)O)NC1=O", "note": "[SEQ ID NO:1, Y, C, N, Q, G, S, F, L, C, Y] (H-YCNQGSFLCY-OH; disulfide 2-9)", "values": [{"measurement": "% response", "setting": "CD4+ T cells", "value": 77, "unit": "%"}, {"measurement": "% Inhibition", "setting": "[1]", "value": 33, "unit": "%"}]}, {"compound": "C[C@@H](O)[C@@H]1NC(=O)[C@@H](NC(=O)[C@@H](N)Cc2ccccc2)CSSC[C@@H](C(=O)N[C@@H](Cc2ccc(O)cc2)C(=O)O)NC(=O)[C@H](CCCCN)NC(=O)[C@H](CO)NC(=O)[C@@H]2CCCN2C(=O)CNC(=O)[C@H](CCCCN)NC1=O", "note": "[SEQ ID NO:3, F, C, T, K, G, P, S, K, C, Y] (H-FCTKGPSKCY-OH; disulfide 2-9)", "values": [{"measurement": "% Inhibition", "setting": "[1]", "value": 83, "unit": "%"}]}, {"compound": "CC(C)[C@@H]1NC(=O)[C@H](CCC(=O)O)NC(=O)[C@@H](NC(=O)[C@@H](N)Cc2ccccc2)CSSC[C@@H](C(=O)N[C@@H](Cc2ccc(O)cc2)C(=O)O)NC(=O)[C@H](CCC(=O)O)NC(=O)[C@H](CCCCN)NC(=O)[C@H](CCC(N)=O)NC(=O)[C@H](CC(=O)O)NC(=O)[C@H](CCC(=O)O)NC1=O", "note": "[SEQ ID NO:8, F, C, E, V, E, D, Q, K, E, C, Y] (H-FCEVEDQKECY-OH; disulfide 2-10)", "values": [{"measurement": "% Inhibition", "setting": "[1]", "value": 83, "unit": "%"}]}, {"compound": "CC(C)C[C@@H]1NC(=O)[C@@H](NC(=O)[C@@H](N)Cc2ccccc2)CSSC[C@@H](C(=O)N[C@@H](Cc2ccc(O)cc2)C(=O)O)NC(=O)[C@H](CC(C)C)NC(=O)[C@H](C(C)C)NC(=O)[C@H](CCC(N)=O)NC(=O)CNC(=O)[C@H](CO)NC(=O)[C@H](CC(=O)O)NC(=O)[C@H](CO)NC1=O", "note": "[SEQ ID NO:9, F, C, L, S, D, S, G, Q, V, L, C, Y] (H-FCLSDSGQVLCY-OH; disulfide 2-11)", "values": [{"measurement": "% response", "setting": "CD4+ T cells", "value": 100, "unit": "%"}, {"measurement": "% Inhibition", "setting": "[1]", "value": 8, "unit": "%"}]}, {"compound": "CDR2R: macrocyclic compound modeled to bind to the reovirus receptor on activated T cells; probably SEQ ID NO:10 (FKTNKCIYSGSTCQF; disulfide 6-13 (inferred))", "values": [{"measurement": "reducing in vivo delayed type hypersensitivity to ABA", "setting": "[2]", "value": "efficacious"}]}, {"compound": "F, C, Y, I, C, E, V, E, D, Q, C, Y (FCYICEVEDQCY; also: cyclized, ring type and places not given here) [SEQ ID NO:7, CD4, 84-91 cyclized, CDR3-like, Human]", "values": [{"measurement": "% protection from syncytia", "setting": "HIV-1MN; 6.125 μg", "value": 48, "unit": "%"}, {"measurement": "syncytia", "setting": "HIV-1MN; 6.125 μg", "value": 35}, {"measurement": "% protection from syncytia", "setting": "HIV-1MN; 12.5 μg", "value": 88, "unit": "%"}, {"measurement": "syncytia", "setting": "HIV-1MN; 12.5 μg", "value": 15}, {"measurement": "% inhibition of sCD4 binding", "setting": "sCD4 binding to DRb2; .1 mg compound, first experiment", "value": 48, "unit": "%"}, {"measurement": "Bound CD4 (cpm)", "setting": "sCD4 binding to DRb2; .1 mg compound, first experiment (none 3600, no DRb2 1100)", "value": 2400, "unit": "cpm"}, {"measurement": "% inhibition of sCD4 binding", "setting": "sCD4 binding to DRb2; .5 mg compound, first experiment", "value": 88, "unit": "%"}, {"measurement": "Bound CD4 (cpm)", "setting": "sCD4 binding to DRb2; .5 mg compound, first experiment (none 3600, no DRb2 1100)", "value": 1400, "unit": "cpm"}, {"measurement": "% inhibition of sCD4 binding", "setting": "sCD4 binding to DRb2; Experiment 2, amount not given", "value": 100, "unit": "%"}, {"measurement": "Bound CD4 (cpm)", "setting": "sCD4 binding to DRb2; Experiment 2, amount not printed (none 2000, no DRb2 1100)", "value": 800, "unit": "cpm"}, {"measurement": "% response", "setting": "CD4+ T cells", "value": 55, "unit": "%"}, {"measurement": "3H-TdR incorporation (cpm)", "setting": "CD4+ T cells; none 45,090 cpm", "value": "25,000 cpm"}, {"measurement": "% Inhibition", "setting": "[1]", "value": 75, "unit": "%"}, {"measurement": "Mean Channel Fluorescence", "setting": "[1]; none 21, background 9", "value": 12}, {"measurement": "% inhibition of MLR", "setting": "[3]", "value": 48, "unit": "%"}, {"measurement": "(cpm)", "setting": "[3]; control 85,000", "value": "55,000 cpm"}]}]}
